Entries after “also recorded” stand apart in the source; their conditions may differ.

The subject of one series is vitamin A-deficient rats. Description: Growth of vitamin A-deficient rats given the compounds orally in Wesson oil. The series is classed as in vivo, rat. Particulars: for growth of vitamin A-deficient rats, comparison between atRA and its esters / growth of vitamin A-deficient rats compared to vehicle control: 83 pmole/day, FIG. 4; for growth of vitamin A-deficient rats, comparison between atRA and its esters / growth of vitamin A-deficient rats compared to vehicle control / growth (weight change) of vitamin A-deficient rats compared to atRA / growth response of vitamin A-deficient rats compared to atRA: 5 days; for in vivo activity relative to atRA (growth support): oral, vitamin A-deficient rats, overall estimate; for growth (weight change) of vitamin A-deficient rats compared to atRA: 83 pmoles/day oral in Wesson oil, FIG. 1; for growth response of vitamin A-deficient rats compared to atRA: 166 pmoles/day (50 μg/day atRA or 59.5 μg/day t-butyl-RA), FIG. 2. The text has this: The first test was to determine if the esterified compounds when given orally could restore normal growth of vitamin A-deficient rats. For this study, Sprague-Dawley, weanling rats were obtained from Harlan (Indianapolis, Ind.). They were fed the purified vitamin A-deficient diet previously described (Suda et al., 1970, J. Nutr. 100:1049-152) supplemented with vitamins D, E and K (White et al., 1998, Proc. Natl. Acad. Sci. USA 95:13459-13464). When the animals stopped growing and began to lose weight, they were administered the indicated doses per day dissolved in Wesson oil. Controls were given the Wesson oil alone (vehicle group). The weight change over the 5-day study period was analyzed by ANOVA, followed by a matrix of pairwise comparison probabilities using four post-hoc tests when the overall P value was less than 0.05. The post-hoc comparison tests included: Turkey HSD multiple comparisons, Sheffe test, Fisher's least-significant-difference test and the Bonferroni adjustment test.
Weanling male rats were obtained from the Harlan Company and were housed individually in hanging wire cages and fed the vitamin A-deficient diet described previously (Suda et al., 1970). At approximately 70 days of age, the animals began to show a leveling off of growth and began to show weight loss. At this time, they were used for the following studies: They were given either 0.1 ml of Wesson oil (vehicle) or the indicated dose of atRA dissolved in the vehicle or one of the derivatives at the indicated dose dissolved in the vehicle. Body weights were recorded daily and plotted as cumulative weight gain or loss over the study period as indicated on the graphs. A daily dose of 83 pmoles (25 μg/day) of atRA is near the minimum amount needed to produce normal growth in […] rats as compared to the vehicle controls that continue to lose weight (FIG. 1). […] When the dose was increased to 50 μg/day of atRA or 59.5 μg/day of the t-butyl derivative, as expected, the growth response was identical.

The next series concerns pregnant rats (embryos). To be noted: female, Sprague Dawley, rat, in vivo, 18.5 embryonic day. From the text: Teratogenic activity of atRA is a serious drawback in its therapeutic potential. […] The results of this experiment illustrate that atRA is, indeed, teratogenic and that the t-butyl derivative shares this liability, but only when given at a dose of 10 times higher than that of atRA. Thus, there is a larger window of safety when using the t-butyl-RA derivative when compared to atRA.
In this experiment, 19 female rats were obtained from Sprague Dawley and were individually housed in cages and given purina chow as well as water ad libitum. After approximately two weeks of acclimation to the animal facility, the females were placed with normal males on the same diet, between 6:00 and 9:00 pm. The following morning, the females were checked for vaginal plugs indicating fertilization. Vaginal smears were then checked for sperm and when shown to be positive, the pregnant rat was placed in the study. At embryonic day 12.3 between 9:00 and 10:00 in the morning, the rats received the following treatments given as a bolus dose in oil orally. Four groups of rats received the vehicle; four received 0.1 mmole/kg (30 mg/kg) atRA in the oil vehicle; another group received an equal molar amount (35.7 mg/kg) of t-butyl-RA; and a final group received a ten-fold higher dose (357 mg/kg) of t-butyl-RA. The embryos were removed by cesarean section on day 18.5 and weighed as well as checked for cleft palette. […]

The next series deals with normal male rats. Description: Acute toxicity of atRA versus t-butyl-RA in normal male rats. It counts as in vivo, rat. To be noted: for body weight change / apparent toxicity: second study, 1 mmole/kg/day for 5 days, FIG. 6. Here is the method:
Two independent toxicity studies were carried out with the t-butyl-RA derivative. […] However, the difference in testes weights between the atRA and t-butyl-RA groups was not statistically significant due to rather large biological variability.
We next examined the acute toxicity of the t-butyl derivative as compared to the atRA derivative in two independent trails. In these experiments, normal male rats weighing approximately 250-300 grams were used. They were individually housed in cages and given Purina lab chow as well as water ad libitum. […] This is an extremely large dose, and represents at least 3,600 times the amount of the t-butyl derivative needed to support a physiological growth response in vitamin A-deficient rats. […] Another indication of toxicity is testes weight as illustrated in FIG. 7.

In the case of `CC1=C(/C=C/C(C)=C/C=C/C(C)=C/C(=O)O)C(C)(C)CCC1` [atRA, all-trans-retinoic acid, reference compound], the “growth of vitamin A-deficient rats, comparison between atRA and its esters” value (“growth … comparison between atRA and its esters” below) with vitamin A-deficient rats is “superior to that of the cholesterol ester-fed group”.

Consider `CC1=C(/C=C/C(C)=C/C=C/C(C)=C/C(=O)O[C@H]2CC[C@@]3(C)C(=CCC4C3CC[C@@]3(C)C4CC[C@@H]3[C@H](C)CCCC(C)C)C2)C(C)(C)CCC1` (stereo partly drawn) [cholesterol ester, all-trans-retinoic acid cholesterol ester], for which, in the series on vitamin A-deficient rats, the “growth of vitamin A-deficient rats compared to vehicle control” value is listed as “significantly enhanced growth compared to vehicle control animals; also recorded: clearly much improved over the vehicle control”; the “growth … comparison between atRA and its esters” value is listed as “less effective”; the “in vivo activity relative to atRA (growth support)” value (“in vivo activity relative to atRA” for short) is “less effective; also recorded: one-third”.

As to `CC1=C(/C=C/C(C)=C/C=C/C(C)=C/C(=O)OC(C)(C)C(C)(C)O)C(C)(C)CCC1` [pinacol ester, all-trans-retinoic acid pinacol ester], in the series with vitamin A-deficient rats, the “growth of vitamin A-deficient rats compared to vehicle control” value was “significantly enhanced growth compared to vehicle control animals”; the “growth … comparison between atRA and its esters” value was “nearly equivalent to atRA”; the “in vivo activity relative to atRA” value was “nearly as active as atRA”.

As to `CC1=C(/C=C/C(C)=C/C=C/C(C)=C/C(=O)OC(C)(C)C)C(C)(C)CCC1` [t-butyl-RA, all-trans-retinoic acid tert-butyl ester], in the series on pregnant rats (embryos), the “dose relative to atRA required to produce equivalent teratogenic effects” value is 10. Besides, the “times less teratogenic than atRA” value with pregnant rats (embryos) is “approximately 10 times”. In addition, in the series with normal male rats (1 mmole/kg/day (357 mg/kg/day) versus growth dose in vitamin A-deficient rats), the “non-toxic dose as multiple of the amount needed to support a physiological growth response” value is given as “at least 3,600 times”. The testes weight entry in the series on normal male rats (1 mmole/kg/day, FIG. 7, listed as t-butyl derivative) was “no such indication; also recorded: similar”. In the series on normal male rats (first study, 1 mmole/kg/day (300 mg/kg/day atRA, 357 mg/kg/day t-butyl-RA), 7 days, FIG. 5), the body weight change result was “continued growth; also recorded: did not cause a weight loss”. Besides, the “other signs of toxicity” value with normal male rats (first study, 1 mmole/kg/day, 7 days, FIG. 5) is “no other externally obvious toxicity”. Also, the entries for the “body weight change / apparent toxicity” value in the series with normal male rats and with normal male rats (listed as t-butyl derivative) were “no apparent toxicity” and “normal growth”, respectively. Besides, the “growth (weight change) of vitamin A-deficient rats compared to atRA” value was “did not differ significantly from that of the group fed an equal molar amount of atRA” with vitamin A-deficient rats and “did not differ from that of atRA” in the series with vitamin A-deficient rats (listed as t-butyl derivative). The entries for the “growth response of vitamin A-deficient rats compared to atRA” value in the series with vitamin A-deficient rats and with vitamin A-deficient rats (listed as t-butyl derivative) were “equivalent” and “identical”, respectively. The “in vivo activity relative to atRA” value in the series with vitamin A-deficient rats is “equal to atRA in potency and efficacy”; with vitamin A-deficient rats (listed as t-butyl derivative) it was “as active as atRA”; in the series with vitamin A-deficient rats (listed as t-butyrate ester) it was “as active in vivo when given orally as is atRA”.
